The record followed here is patent US20260055061A1, “HALOPHTHALIMIDE COMPOUNDS AND METHODS OF USE AGAINST TBI, INFLAMMATORY DISORDER, AUTOIMMUNE DISORDER, NEURODEGENERATIVE DISEASE OR VIRAL INFECTION” (The United States of America, as represented by the …, priority 2022, published 2026).

Where only a bound is given, the exact number is not on record here.

Assay [1] has as its target cereblon (CRBN/DDB1-CUL4A-Rbx1 complex) / BRD3 (Homo sapiens (Human), UniProt Q96SW2). Put plainly: Cereblon/BRD3 binding assay (AlphaScreen / FRET). The settings on record: for IC50: Example 5, FIG. 20A; for cereblon binding (in words): cereblon/BRD3 binding FRET assay. How it is done:
After 30 min of incubation with shaking at room temperature, AlphaLISA anti-FLAG Acceptor and Alpha Glutathione Donor beads (PerkinElmer) were sequentially added and then incubated for 1 hr at room temperature for each of the added chemicals. Alpha counts were thereafter read on a Synergy Neo2 (BioTek) for the analysis. Relative activity or inhibition was calculated as the highest value, which was set to 100%, and the lowest value was set to 0% after subtraction of the “blank value” from all readings.
After 30 min of incubation with shaking at room temperature, AlphaLISA anti-FLAG Acceptor and Alpha Glutathione Donor beads (PerkinElmer) were sequentially added and then incubated for 1 h at room temperature for each of the added chemicals. Alpha counts were thereafter read on a Synergy Neo2 (BioTek) for the analysis. The relative activity of the alpha signal was calculated after subtraction of the “blank value” from all readings, and the value of the vehicle group was then set as 100%.
(Bead proximity is the source of the signal in Alpha formats.)

The test system of another assay is IL-5. Put plainly: LPS model of inflammation in rats: IL-5 in plasma and cortex. In kind it is in vivo, rat. The settings on record: both doses; LPS-challenged rats.
The target of another assay is SALL4 (Homo sapiens (Human), UniProt Q9UJQ4). Put plainly: SALL4 expression in Tera-1 cells (Western blot). The class given is cell-based. The settings on record: Tera-1 cells, 0.1 μM and 1 μM. How it is done:
(§1) For Western blot analysis, total proteins were extracted using RIPA buffer (ThermoFisher Scientific, Waltham, MA) containing Halt Protease Inhibitor Cocktail (ThermoFisher Scientific). […] After incubation at 4° C. overnight, the following HRP conjugated secondary antibodies were used: (i) goat anti-rabbit IgG (ThermoFisher Scientific) for ikaros and aiolos, and (ii) goat anti-mouse IgG (ThermoFisher Scientific) for SALL4 and GAPDH. […] Antigen-antibody complexes were detected using enhanced chemiluminescence (Thermo, iBright CL1500).
Specifically, MM1.S cells were obtained from ATCC (Manassas, VA, USA), grown in RPMI media supplemented with 10% FBS, penicillin 100 U/mL, and streptomycin […], and maintained at 37° C. and 5% CO2.
as §1, with “MA, USA)” for “MA)”, “Scientific). Thereafter, the proteins were separated by gel electrophoresis and then transferred to polyvinylidene difluoride (PVDF) membranes (ThermoFisher Scientific), as described previously.” for “Scientific).”, “HRP-conjugated” for “HRP conjugated”, “Ikaros” for “ikaros”, “Aiolos,” for “aiolos,”, “(ThermoFisher Scientific,” for “(Thermo,”

Another assay relates to CCI-induced TBI mice. The assay is described as follows: Controlled cortical impact (CCI) mouse model of TBI: beam walking test. The following applies: for beam walking test average transit time / beam walking test immobility time: 1 week after CCI. The class given is in vivo. As to the method: In vivo model of TBI: Mice were anesthetized with 2.5% tribromoethanol (Avertin: 250 mg/kg; Sigma, St. Louis, MO, USA) and placed in a stereotaxic frame (Kopf Instruments, Tujunga, CA, USA). A 4 mm craniotomy was performed using sterile procedures; the craniotomy point was selected midway between the lambda and bregma sutures and laterally midway between the central suture and the temporalis muscle. The skull fragment was then carefully removed without disruption of the underlying dura. Prior to injury induction, the tip of the impactor was angled and kept perpendicular to the exposed cortical surface. The mouse CCI instrument consisted of an electromagnetic impactor, Impact One (Leica Biosystems Inc., Buffalo Grove, IL, USA) that allows independent alteration of injury severity by controlling contact velocity and the level of cortical deformation. In these experiments, the contact velocity was set at 5.0 m/sec, the dwell time was set at 0.2 s and the deformation depth was set at 2 mm to produce a moderate TBI. The injury site was allowed to dry prior to suturing the wound. During surgery and recovery, the body temperature of the animals was maintained at 36-37° C. by using a heating pad. […] Mice were randomized following CCI to treatment with either of two doses of TFBP (16.25 mg/kg and 32.5 mg/kg, i.p.) or saline, and were dosed at 1 and 24 hr after the injury.
Behavioral assessment for motor functions and coordination: Behavioral tests were performed 1 week and 2 weeks after injury, to assess changes in motor functions and coordination. All tests were performed during the animals' light phase; cages were transported to testing rooms at least 30 min prior to testing.
Beam Walking Test (BWT): A BWT was used to assess CCI-induced deficits in fine motor coordination. Mice have a preference for a darkened enclosed environment, as compared to an open illuminated one. Each animal was placed in darkened goal box for a 2 min habituation and then the trial began from the other (light) end of the beam. The beam was constructed with the following dimensions: 1.2 cm (width)×91 cm (length). The time taken for each animal to traverse the beam to reach the dark goal box and the immobility time spent between the moment when they were initially placed in the beam and when they started walking were documented. Five trials were recorded for each animal before CCI and at 1 and 2 weeks after CCI. The mean times to traverse the beam and the immobility times were calculated, and a plot was generated to evaluate treatment effects; these times were then used for statistical analysis.
In Vivo Model of TBI: TBI studies were conducted in 8-week-old male C57/BL6 mice (25-30 g; n=20), Jackson Laboratory, Bar Harbor, Maine USA. Mice were randomly assigned to four groups prior surgery, CMC+Sham, CMC+TBI, compound 30 (Low dose (LD), 14.78 mg/kg, prepared in 1% CMC in PBS)+TBI, compound 30 (High dose (HD), 29.57 mg/kg)+TBI, and evaluated the effects of compound 30 on TBI. Mice were assessed for gait function and motor coordination, balance function. Animals were subsequently evaluated for cellular changes using histological and immunohistochemistry staining.
Mice were anesthetized with 2.5% tribromoethanol (Avertin: 250 mg/kg; Sigma, St. Louis, MO, USA)) and placed in a mouse stereotaxic frame (Kopf Instruments, Tujunga, CA, USA) and fixed by ear bars and incisor bar. Under sterile procedures, the skin was retracted and a 5-mm square craniectomy was executed over right motor cortex at the posterior corner between the bregma and sagittal sutures. The skull was carefully removed by a drill to avoid damaging the dura underneath. The process of craniectomy proceeded without having the temporalis muscle impaired. The CCI device, Impact One (Leica Biosystems Inc., Buffalo Grove, IL, USA), consists of an electromagnetic impactor that allows alteration of injury severity by controlling contact velocity and the depth of cortical deformation independently. […]

cereblon (CRBN/DDB1-CUL4A-Rbx1 complex) / BRD3, sequence (Q96SW2 whole entry): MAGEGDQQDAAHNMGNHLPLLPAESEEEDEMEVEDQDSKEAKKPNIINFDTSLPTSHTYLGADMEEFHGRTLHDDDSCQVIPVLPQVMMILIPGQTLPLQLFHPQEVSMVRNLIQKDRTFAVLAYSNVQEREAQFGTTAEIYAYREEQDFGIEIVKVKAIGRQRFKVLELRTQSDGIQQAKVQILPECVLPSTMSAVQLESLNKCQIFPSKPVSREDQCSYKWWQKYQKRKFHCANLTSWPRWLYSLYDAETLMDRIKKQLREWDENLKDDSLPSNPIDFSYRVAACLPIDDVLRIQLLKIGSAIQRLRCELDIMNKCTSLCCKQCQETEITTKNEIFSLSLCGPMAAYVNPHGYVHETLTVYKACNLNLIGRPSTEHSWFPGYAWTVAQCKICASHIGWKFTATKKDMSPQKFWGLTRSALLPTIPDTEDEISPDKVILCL
cereblon (CRBN/DDB1-CUL4A-Rbx1 complex) / BRD3, sequence (Q16531 whole entry partner): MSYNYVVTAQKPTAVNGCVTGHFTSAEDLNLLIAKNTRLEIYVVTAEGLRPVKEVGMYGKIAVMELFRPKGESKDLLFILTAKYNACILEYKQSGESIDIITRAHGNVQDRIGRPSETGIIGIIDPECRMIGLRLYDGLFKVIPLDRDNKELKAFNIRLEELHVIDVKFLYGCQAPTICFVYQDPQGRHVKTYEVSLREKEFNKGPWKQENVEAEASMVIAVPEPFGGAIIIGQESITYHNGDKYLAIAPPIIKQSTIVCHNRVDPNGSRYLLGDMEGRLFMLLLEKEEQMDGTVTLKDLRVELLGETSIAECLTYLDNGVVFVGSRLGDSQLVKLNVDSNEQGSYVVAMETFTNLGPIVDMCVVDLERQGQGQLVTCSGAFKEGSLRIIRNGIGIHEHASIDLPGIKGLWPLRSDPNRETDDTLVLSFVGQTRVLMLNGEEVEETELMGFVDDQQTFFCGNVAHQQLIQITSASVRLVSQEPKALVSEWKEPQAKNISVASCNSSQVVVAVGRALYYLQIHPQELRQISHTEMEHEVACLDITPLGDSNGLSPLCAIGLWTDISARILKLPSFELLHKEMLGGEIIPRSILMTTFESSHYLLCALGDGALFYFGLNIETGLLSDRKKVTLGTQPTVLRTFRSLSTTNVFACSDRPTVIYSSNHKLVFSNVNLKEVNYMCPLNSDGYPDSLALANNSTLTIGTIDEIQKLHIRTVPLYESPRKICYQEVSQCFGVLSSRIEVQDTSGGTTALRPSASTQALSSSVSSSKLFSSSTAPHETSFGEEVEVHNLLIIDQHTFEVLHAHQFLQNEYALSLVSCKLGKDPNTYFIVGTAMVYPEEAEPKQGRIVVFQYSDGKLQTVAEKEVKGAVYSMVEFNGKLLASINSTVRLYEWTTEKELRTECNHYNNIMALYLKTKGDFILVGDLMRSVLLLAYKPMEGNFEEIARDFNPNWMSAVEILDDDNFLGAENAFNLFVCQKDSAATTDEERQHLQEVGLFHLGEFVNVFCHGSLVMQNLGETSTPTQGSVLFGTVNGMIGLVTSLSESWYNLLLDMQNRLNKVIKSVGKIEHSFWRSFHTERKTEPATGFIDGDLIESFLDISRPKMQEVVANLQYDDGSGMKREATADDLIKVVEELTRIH
cereblon (CRBN/DDB1-CUL4A-Rbx1 complex) / BRD3, sequence (Q13619 whole entry partner): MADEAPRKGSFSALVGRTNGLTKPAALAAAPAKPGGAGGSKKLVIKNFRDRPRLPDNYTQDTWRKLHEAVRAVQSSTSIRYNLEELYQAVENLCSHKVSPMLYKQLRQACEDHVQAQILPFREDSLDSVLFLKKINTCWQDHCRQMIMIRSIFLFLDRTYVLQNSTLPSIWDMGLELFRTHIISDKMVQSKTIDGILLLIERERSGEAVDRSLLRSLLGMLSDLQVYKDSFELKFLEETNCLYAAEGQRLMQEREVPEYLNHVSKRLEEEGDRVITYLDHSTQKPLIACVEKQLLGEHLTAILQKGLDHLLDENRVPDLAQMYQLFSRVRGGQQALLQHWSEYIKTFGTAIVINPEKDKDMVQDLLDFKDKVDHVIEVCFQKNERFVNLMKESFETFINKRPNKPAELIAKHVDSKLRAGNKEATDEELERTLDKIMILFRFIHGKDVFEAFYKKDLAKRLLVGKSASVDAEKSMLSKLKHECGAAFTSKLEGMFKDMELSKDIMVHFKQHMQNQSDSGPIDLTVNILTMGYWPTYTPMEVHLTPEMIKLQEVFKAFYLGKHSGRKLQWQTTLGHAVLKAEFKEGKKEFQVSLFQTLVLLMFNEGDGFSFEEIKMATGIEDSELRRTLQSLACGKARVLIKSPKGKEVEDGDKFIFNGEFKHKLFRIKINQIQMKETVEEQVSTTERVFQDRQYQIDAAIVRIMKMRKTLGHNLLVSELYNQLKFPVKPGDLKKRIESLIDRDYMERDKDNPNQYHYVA
cereblon (CRBN/DDB1-CUL4A-Rbx1 complex) / BRD3, sequence (P62877 whole entry partner): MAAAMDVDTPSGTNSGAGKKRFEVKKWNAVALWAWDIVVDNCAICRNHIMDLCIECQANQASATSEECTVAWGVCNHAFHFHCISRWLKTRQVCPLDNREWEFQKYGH

Usually IC50 stands for the concentration that inhibits the measured activity by half. For `O=C1c2c(F)c(F)c(F)c(F)c2C(=O)N1C1CC2CCC1C2` (stereo not drawn) [Compound 16, 2-Endo-(bicyclo[2.2.1]heptan-2-yl)-4,5,6,7-tetrafluoroisoindoline-1,3-dione], in assay [1], the half-maximal inhibitory concentration (IC50) is above 100 µM and the “cereblon binding (in words)” value is recorded as “did not bind cereblon”. Also, in the assay with IL-5, the “IL-5 expression in plasma (in words)” value was “reduced IL-5 expression in plasma”. The SALL4 expression levels entry on SALL4 is “did not statistically affect”. The SALL4 expression levels entry on SALL4 (listed as TFNBP) is “did not lower the expression of neosubstrate SALL4”.

In the case of `CC1(C)[C@@H]2CC[C@@]1(C)[C@@H](N1C(=O)c3c(F)c(F)c(F)c(F)c3C1=O)C2` [Compound 14, 4,5,6,7-Tetrafluoro-2-((1R,2S,4R)-1,7,7-trimethylbicyclo[2.2.1]heptan-2-yl) isoindoline-1,3-dione], in assay [1], the half-inhibitory concentration (IC50) came to 53.4 µM. The “cereblon binding (in words)” value in assay [1] is listed as “did not bind cereblon”. For the same compound, the entries for the “beam walking test average transit time” value in the assay with CCI-induced TBI mice (higher dose 32.5 mg/kg i.p.) and with CCI-induced TBI mice (lower dose 16.25 mg/kg i.p.) were “prevented the CCI-induced behavioral impairment” and “but not the average transit time deficit”, respectively. The results for the “beam walking test immobility time” value with CCI-induced TBI mice (higher dose 32.5 mg/kg i.p.) and in the assay with CCI-induced TBI mice (lower dose 16.25 mg/kg i.p.) were “prevented the CCI-induced behavioral impairment” and “effective in mitigating the immobility measure”, respectively. In addition, the “IL-5 expression in plasma (in words)” value in the assay with IL-5 is reported as “reduced IL-5 expression in plasma”. The SALL4 expression levels entry on SALL4 is “did not statistically affect”; on SALL4 (listed as TFBP), “did not lower the expression of neosubstrate SALL4”.

`Nc1ccc(F)c2c1C(=S)N(C1CCC(=S)NC1=O)C2=O` (stereo not shown) [Compound 30, 4-amino-7-fluoro-2-(2-oxo-6-thioxopiperidin-3-yl)-3-thioxoisoindolin-1-one]: the “beam walking test average time” value with CCI-induced TBI mice (high dose 29.57 mg/kg) is listed as “reached significant different”. The “beam walking test, average time and contralateral foot falls (trend)” value in the assay with CCI-induced TBI mice (treated groups 14.78, 29.57 mg/kg) was “clear reducing trends”.
